The subject of this test is mice pulmonary fibrosis induced by bleomycin. The test is described as follows: Anti-pulmonary fibrosis experiment in mice induced by bleomycin. Format: in vivo, Kunming mice. As to conditions: 3 weeks. As for the experimental part: Dividing the 40 mice into 4 groups: □ normal control group, given nasal dripping of normal saline, drenched with normal saline; □ model control group:given nasal dripping of bleomycin, drenched with normal saline; □(S)-salvianolic acid T group (16 mg/kg): given nasal dripping of bleomycin, drenched with (S)-salvianolic acid T solution; □(R)-salvianolic acid T group (16 mg/kg): given nasal dripping of bleomycin, drenched with (R)-salvianolic acid T solution; 10 mice in each group.
On the first day of the experiment, the mice were anesthetized with chloral hydrate, each mouse was given disposable nasal dripping of 50 μg bleomycin to establish the pulmonary fibrosis model. On the second day of the experiment, two treatment groups were drenched with (S)/(R)-salvianolic acid T, the model group and the normal group were drenched with equal volume of normal saline, once each day, 3 consecutive weeks. On the 21th day of the experiment, serum was separated from the blood collected from the orbital vein to detect TGF-β1, the mice were killed to take lungs, ground with double distilled water (the ratio of lungs and double distilled water was 1:5 (w/v)) into tissue homogenate, centrifuged to detect the MDA, superoxide dismutase (SOD), catalase (CAT), peroxidase (POD) in the tissues.

[1] abbreviates: 16 mg/kg, lung tissue homogenate.

Consider `O=C(/C=C/c1ccc(O)c(O)c1/C(=C\c1ccc(O)c(O)c1)C(=O)O)O[C@H](Cc1ccc(O)c(O)c1)C(=O)O` [(R)-salvianolic acid T], for which the “Serum TGF-β1” value (16 mg/kg drenched once each day, day 21) is recorded as 254 ± 29 ng/L. In addition, under setting [1], the CAT is on record as 23.1 ± 2.9 U/g, the MDA stood at 311 ± 29 µg/g, the POD is 16.4 ± 1.9 U/g and the SOD is on record as 52.2 ± 5.1 U/g. Further, under setting [1], the “Tissue TGF-β1” value worked out at 562 ± 69 pg/g.
